What was measured:
[1] = test system: intestinal alpha-glucosidase; details: background statement, in vitro; cited from earlier work
pancreatic alpha-amylase = target: T1, pancreatic alpha-amylase (Homo sapiens, UniProt P04746); details: background statement, in vitro; cited from earlier work
T1 sequence (P04746 16-511): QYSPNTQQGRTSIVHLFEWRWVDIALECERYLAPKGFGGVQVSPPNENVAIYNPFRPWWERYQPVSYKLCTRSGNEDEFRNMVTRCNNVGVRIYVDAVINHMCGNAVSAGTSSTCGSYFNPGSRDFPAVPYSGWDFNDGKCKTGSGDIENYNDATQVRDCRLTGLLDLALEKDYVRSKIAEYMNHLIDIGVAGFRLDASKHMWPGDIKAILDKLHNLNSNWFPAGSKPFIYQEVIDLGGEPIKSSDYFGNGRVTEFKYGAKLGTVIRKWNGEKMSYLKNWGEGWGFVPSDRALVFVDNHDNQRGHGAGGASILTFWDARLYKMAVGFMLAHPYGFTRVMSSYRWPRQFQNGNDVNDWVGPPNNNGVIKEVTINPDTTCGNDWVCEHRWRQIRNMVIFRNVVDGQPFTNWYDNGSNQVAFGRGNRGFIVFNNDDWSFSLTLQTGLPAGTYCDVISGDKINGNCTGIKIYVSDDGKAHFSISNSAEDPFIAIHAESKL

[2] = Blood levels of biomolecules before and 90 minutes after administration; assay type: in vivo, human
Experimental: Subject 5 was a person, weighing approximately 285 pounds and with a normal fasting blood sugar level of 115-120. First, blood was drawn from Subject 5 and levels of various biomolecules were measured. Next, Subject 5 was administered 16.66 ml of the Example 1 formulation on an empty stomach, i.e. wherein with each 16.66 ml the subject received 5,000 mg of the potassium-magnesium (−)-hydroxycitric acid salt, corresponding to 3490 mg of (−)-hydroxycitric acid. 90 minutes after the administration, blood was drawn from Subject 5 and levels of the various biomolecules were remeasured.
Subject 6 was administered 16.66 ml of the Example 1 formulation on an empty stomach, i.e. wherein with each 16.66 ml the subject received 5,000 mg of the potassium-magnesium (−)-hydroxycitric acid salt, corresponding to 3490 mg of (−)-hydroxycitric acid. 90 minutes after the administration, blood was drawn from Subject 6 and levels of the various biomolecules were remeasured.

[3] = fNIRS measurement of blood hemoglobin and oxygen saturation after oral administration; assay type: in vivo, human; details: overall statement on HCA administration
Experimental: Subjects 1-4 were orally administered the formulation of Example 1. The Subjects were given either one or two administrations of 8.33 ml of the aqueous formulation of Example 1 on an empty stomach, i.e. wherein with each 8.33 ml the subject received 2,500 mg of the potassium-magnesium (−)-hydroxycitric acid salt, corresponding to 1745 mg of (−)-hydroxycitric acid.
fNIRS testing (functional Near Infrared Spectroscopy) was used to measure blood hemoglobin and oxygen saturation. fNIRS can be used to determine real-time peripheral and cerebral hemodynamic responses. For example, relative changes in HbR (deoxygen saturation), HbO (oxygen saturation), and HbT (total hemoglobin concentration), etc. can be determined via application of Modified Beer Lambert Law. HbR, Hb=deoxygen saturation (shown as the thinnest and bottom dashed line in FIG. 1) HbO, HbO2=oxygen saturation (shown as the medium-thickness and middle line in FIG. 1) HbT=total hemoglobin concentration (shown as the darkest, thickest and top line in FIG. 1). On the graphs, time is in seconds.

ATP citrate lyase = target: T2, ATP citrate lyase (Homo sapiens, UniProt P53396); details: background statement; cited from earlier work
T2 sequence (P53396 1-1101): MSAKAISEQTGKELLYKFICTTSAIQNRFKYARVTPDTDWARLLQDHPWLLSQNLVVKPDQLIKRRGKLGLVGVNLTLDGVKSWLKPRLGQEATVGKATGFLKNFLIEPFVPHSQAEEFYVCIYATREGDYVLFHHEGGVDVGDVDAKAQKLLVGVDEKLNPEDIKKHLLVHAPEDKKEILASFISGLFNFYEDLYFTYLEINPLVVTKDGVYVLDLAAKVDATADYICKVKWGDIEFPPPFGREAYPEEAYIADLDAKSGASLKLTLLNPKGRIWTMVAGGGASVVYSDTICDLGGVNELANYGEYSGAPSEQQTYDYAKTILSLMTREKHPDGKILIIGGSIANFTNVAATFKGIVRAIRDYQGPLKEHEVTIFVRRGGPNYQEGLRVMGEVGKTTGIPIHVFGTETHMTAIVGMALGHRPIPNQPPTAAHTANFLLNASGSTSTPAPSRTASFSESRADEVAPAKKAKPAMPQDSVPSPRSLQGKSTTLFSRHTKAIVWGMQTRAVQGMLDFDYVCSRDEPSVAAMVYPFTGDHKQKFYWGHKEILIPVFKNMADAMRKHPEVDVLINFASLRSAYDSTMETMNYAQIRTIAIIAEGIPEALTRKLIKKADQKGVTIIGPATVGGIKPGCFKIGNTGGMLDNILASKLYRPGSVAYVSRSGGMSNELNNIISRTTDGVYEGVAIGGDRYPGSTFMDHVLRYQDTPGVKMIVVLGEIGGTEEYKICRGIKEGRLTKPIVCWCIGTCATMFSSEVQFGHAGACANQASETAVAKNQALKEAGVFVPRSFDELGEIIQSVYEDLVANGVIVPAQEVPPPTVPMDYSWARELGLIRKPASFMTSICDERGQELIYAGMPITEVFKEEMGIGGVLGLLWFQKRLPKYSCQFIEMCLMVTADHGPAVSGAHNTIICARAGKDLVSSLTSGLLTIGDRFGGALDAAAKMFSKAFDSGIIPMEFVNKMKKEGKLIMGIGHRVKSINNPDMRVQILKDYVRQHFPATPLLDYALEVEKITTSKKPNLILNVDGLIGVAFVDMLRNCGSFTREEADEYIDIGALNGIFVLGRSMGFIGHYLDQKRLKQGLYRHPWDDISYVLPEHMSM

[4] = overall conclusion on HCA administration

| Structure (SMILES) | inhibition of intestinal alpha-glucosidase [1] | inhibition of pancreatic alpha-amylase (pancreatic alpha-amylase) | Ketones Result ([2]; Subject 5, 16.66 ml on empty stomach, 90 mins after administration, before (fasting) 0.6) | cortisol [2, 4] | levels of ketones [2, 4] | triglycerides [2, 4] | glucose ([2]; overall conclusion on HCA administration, in some cases transient) | blood hemoglobin [3] | oxygen saturation [3] | inhibition of ATP citrate lyase (ATP citrate lyase) |
| --- | --- | --- | --- | --- | --- | --- | --- | --- | --- | --- |
| O=C(O)C[C@](O)(C(=O)O)[C@H](O)C(=O)O [(2S,3R)-HCA] | inhibits | inhibits |  |  |  |  |  |  |  |  |
| O=C(O)CC(O)(C(=O)O)C(O)C(=O)O (stereo not shown) [HCA, 1,2-dihydroxypropane-1,2,3-tricarboxylic acid] |  |  | 0.5 | decreased | relatively stable or slightly lower levels | decreased | increased | increased | increased | competitive inhibitor |

Source: patent US11957649B2, “Methods and pharmaceutical preparations for elevating ketone utilization” (GLYKON TECHNOLOGIES GROUP, LLC, priority 2020, dated 2024)
